Measurements published in patent US11040066B2, “Topical composition for use in the treatment of burns” (Safeguard Medical Holdco, LLC, priority 2017, dated 2021).

Test: Gamma radiation resistance of gel formulas (Rounds 1-5)
Assay type: physicochemical
Settings: Round 1; summary in words
Text: Following several failed attempts to formulate a composition with suitable viscosity and other properties to function as a burn treatment, the Inventors obtained stable compositions which were sent for testing to assess stability under gamma radiation.
OVERVIEW: To incorporate: Polyaminopropyl biguanide (INCI name); Chemical name: Polyhexamethylene Biguanide Hydrochloride (PHMB) and later Oriel sea mineral complex into a gel formula that can withstand the impact of gamma radiation sterilisation.
5 rounds of formulas were sent out for gamma radiations as outlined below.
Round 1 Summary: Started with our current BD (Burn Dressing) Gel with hyaluronic acid (HA) formula to which various ingredients were added.
Carbopol is the thickening agent used in BD Gel with HA, the only experiment in round 1 to which PHMB was added.
Round 2 Summary: Since PHMB was incompatible with Carbopol, new formulas containing various other thickeners were tried. Since propylene glycol, a humectant helped, another humectant (propanediol) was tried. For all the experimental batches made, only the stable formulas were sent out for gamma radiation. Only some of round 2 formulas contain PHMB (20% solution) @0.2% […]
In round 5, the final formula was determined from a selection of which were sent out for gamma radiation with acceptable results. […]

Change following gamma radiation: little or no change
SMILES: CC(O)CO (stereo not shown) [propylene glycol, 1,2-Propanediol]
